{"source": "patent US20090093460A1", "about": "“Compositions” (AstraZeneca AB, priority 2003, published 2009)", "target": "T1, Adrenergic α1A (Rattus norvegicus, UniProt P43140)", "T1 construct": "203100", "T1 sequence (P43140 1-466)": "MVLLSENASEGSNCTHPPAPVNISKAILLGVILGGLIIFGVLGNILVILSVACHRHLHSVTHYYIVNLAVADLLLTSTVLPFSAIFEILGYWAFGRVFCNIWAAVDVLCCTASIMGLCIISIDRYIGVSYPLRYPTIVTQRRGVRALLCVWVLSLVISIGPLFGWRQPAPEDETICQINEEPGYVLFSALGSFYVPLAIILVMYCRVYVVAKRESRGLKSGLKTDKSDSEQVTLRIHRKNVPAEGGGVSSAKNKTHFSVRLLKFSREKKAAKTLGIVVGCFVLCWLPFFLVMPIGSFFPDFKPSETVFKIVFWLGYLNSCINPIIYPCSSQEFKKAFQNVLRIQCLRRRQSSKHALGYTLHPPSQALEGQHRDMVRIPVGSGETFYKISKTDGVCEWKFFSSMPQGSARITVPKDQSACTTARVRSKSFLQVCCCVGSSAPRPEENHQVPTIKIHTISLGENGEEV", "assay": "Radioligand binding 203100 Adrenergic α1A", "excerpt": "Receptor binding methods, (α-adrenergic subtype specific, are provided below.", "note": "Read-outs that look alike come from different tables or passages of the source."}
{"smiles": "c1ccc2c(c1)N=C(N1CCNCC1)c1ccccc1S2", "note": "[11-piperazin-1-yldibenzo[b,f][1,4]thiazepine]", "values": [{"measurement": "IC50", "value": "268 ± 12", "unit": "nM"}, {"measurement": "n", "value": "1.03 ± 0.089"}, {"measurement": "inhibition at 0.3 µM", "setting": "0.3 μM", "value": 51, "unit": "%"}, {"measurement": "Ki", "setting": "read-out: ki", "value": "108 ± 5", "unit": "nM"}, {"measurement": "Ki", "setting": "α1A, read-out: Affinity", "value": 108, "unit": "nM"}]}
